Data: patent US12539292B2, “BRM targeting compounds and associated methods of use” (Arvinas Operations, Inc., priority 2018, dated 2026)

Target: T1, BRM (Homo sapiens, UniProt P51531)
T1 construct: In-Cell Western Screen of BRM Degradation in SW1573 Cells; endogenous in cells; host or cells: SW1573
Assay: In-cell Western screen of BRM degradation in SW1573 cells (Dmax and DC50)
Assay type: cell-based
Conditions: BRM degradation, SW1573 cells, Table 2D; for Dmax: read-out: **Dmax (%) (% degraded); for DC50: read-out: *DC50
Description: In-Cell Western Screen of BRM Degradation in SW1573 Cells
To assess BRM degradation (Dmax and DC50), cells were seeded at 8000/well in 96-well black/clear-bottom plates in 180 μL DMEM growth media (containing 1% pen-strep, 1% HEPES and 10% FBS) per well. Plates were incubated overnight to allow adhesion. The next morning cells were treated by adding 20 μL of 10× compound (1% DMSO) to appropriate wells and returned to incubator for overnight (18-20 hours). The final DMSO concentration was 0.1%.
For processing, the plates were removed from incubator, the media was removed, and immediately 200 μL of cold (4° C.) DPBS was added to all wells. DPBS was then removed, and 50 μL of 4% paraformaldehyde (PFA) in DPBS (4° C.) was added to all wells, and the plates were incubated at room temperature for 20 minutes. PFA was then removed, and 200 μL of TBS-T containing 0.5% Triton X-100 was added to all wells, and the plates were incubated at room temperature for 30 minutes. TBS-T containing 0.5% Triton X-100 was then removed, and 50 μL of Li-Cor blocking solution was added, and the plates were incubated at room temperature for a minimum of one hour.
The next day plates were washed three times with TBS-T, 200 μL per well. Fifty (50) μL of secondary antibody cocktail in LI-COR blocking solution (anti-rabbit_800 nm and anti-mouse_680 nm) was added to all wells (diluted 1:5000). The plates were incubated at room temperature for at least one hour while protected from light. The plates were washed twice with TBS-T, 200 μL per well.
To read each plate TBS-T was removed, and each plate was inverted tapped on a paper towel. The plates were read on the LI-COR Odyssey with default intensity settings of 5.0 for both channels. LI-COR images were analyzed with the in-cell Western feature of Image Studio Lite.

T1 sequence (P51531 whole entry): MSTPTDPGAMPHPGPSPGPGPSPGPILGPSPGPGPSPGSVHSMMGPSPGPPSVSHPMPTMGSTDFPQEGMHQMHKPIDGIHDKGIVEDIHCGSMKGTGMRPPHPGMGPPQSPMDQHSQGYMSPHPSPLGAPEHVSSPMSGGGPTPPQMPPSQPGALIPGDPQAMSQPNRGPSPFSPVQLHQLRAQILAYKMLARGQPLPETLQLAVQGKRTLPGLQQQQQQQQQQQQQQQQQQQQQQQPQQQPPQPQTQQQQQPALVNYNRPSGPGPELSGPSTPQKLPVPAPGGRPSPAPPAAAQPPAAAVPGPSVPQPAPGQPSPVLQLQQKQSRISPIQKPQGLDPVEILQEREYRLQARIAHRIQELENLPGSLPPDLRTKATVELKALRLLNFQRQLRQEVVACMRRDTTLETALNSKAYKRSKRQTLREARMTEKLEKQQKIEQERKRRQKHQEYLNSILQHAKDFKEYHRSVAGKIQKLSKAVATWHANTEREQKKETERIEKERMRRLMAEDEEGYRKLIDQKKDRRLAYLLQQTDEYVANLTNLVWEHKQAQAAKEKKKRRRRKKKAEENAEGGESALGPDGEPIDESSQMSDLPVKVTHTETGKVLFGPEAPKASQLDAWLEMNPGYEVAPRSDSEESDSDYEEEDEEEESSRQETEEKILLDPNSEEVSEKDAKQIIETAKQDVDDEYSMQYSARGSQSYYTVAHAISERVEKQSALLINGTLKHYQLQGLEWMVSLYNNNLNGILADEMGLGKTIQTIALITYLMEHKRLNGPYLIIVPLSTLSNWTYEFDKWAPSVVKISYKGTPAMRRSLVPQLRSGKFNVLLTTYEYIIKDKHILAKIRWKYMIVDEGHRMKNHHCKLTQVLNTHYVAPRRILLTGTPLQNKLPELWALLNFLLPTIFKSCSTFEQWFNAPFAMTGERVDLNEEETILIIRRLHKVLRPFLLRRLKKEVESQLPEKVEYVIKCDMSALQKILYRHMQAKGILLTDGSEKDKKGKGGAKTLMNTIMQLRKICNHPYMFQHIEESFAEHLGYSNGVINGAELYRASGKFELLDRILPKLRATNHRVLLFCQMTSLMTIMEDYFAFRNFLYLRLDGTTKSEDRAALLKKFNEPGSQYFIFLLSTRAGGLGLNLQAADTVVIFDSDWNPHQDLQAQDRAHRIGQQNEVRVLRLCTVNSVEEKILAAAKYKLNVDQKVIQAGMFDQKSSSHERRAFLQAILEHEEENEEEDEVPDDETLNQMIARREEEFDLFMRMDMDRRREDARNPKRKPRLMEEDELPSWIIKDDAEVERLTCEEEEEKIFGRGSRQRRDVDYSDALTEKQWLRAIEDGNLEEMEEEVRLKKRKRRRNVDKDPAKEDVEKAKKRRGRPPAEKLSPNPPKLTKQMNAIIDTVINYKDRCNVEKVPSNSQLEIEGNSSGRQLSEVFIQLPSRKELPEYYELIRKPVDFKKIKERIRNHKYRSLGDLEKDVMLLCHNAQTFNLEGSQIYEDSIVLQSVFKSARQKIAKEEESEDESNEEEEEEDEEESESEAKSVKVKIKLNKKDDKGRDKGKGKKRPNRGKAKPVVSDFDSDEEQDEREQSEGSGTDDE

Cc1ncsc1-c1ccc([C@H](C)NC(=O)[C@@H]2C[C@@H](O)CN2C(=O)[C@@H](c2cc(OCC[C@@H]3CCN(C[C@H]4C[C@H](Oc5cc(N6C7CCC6CN(c6cc(-c8ccccc8O)nnc6N)C7)ccn5)C4)C[C@H]3C)no2)C(C)C)cc1 (racemic) [compound 546, (2S,4R)-1-((2R)-2-(3-(2-((3S,4S)-1-(((1r,3S)-3-((4-(3-(3-amino-6-(2-hydroxyphenyl)pyridazin-4-yl)-3,8-diazabicyclo[3.2.1]octan-8-yl)pyridin-2-yl)oxy)cyclobutyl)methyl)-3-methylpiperidin-4-yl)ethoxy)isoxazol-5-yl)-3-methylbutanoyl)-4-hydroxy-N-((S)-1-(4-(4-methylthiazol-5-yl)phenyl)ethyl)pyrrolidine-2-carboxamide]
Dmax: > 75%
DC50: < 2.5 nM

Cc1ncsc1-c1ccc([C@H](C)NC(=O)[C@@H]2C[C@@H](O)CN2C(=O)[C@H](c2cc(OCC[C@H]3CCN(C[C@H]4C[C@H](Oc5cc(N6C7CCC6CN(c6cc(-c8ccccc8O)nnc6N)C7)ccn5)C4)[C@@H](C)C3)no2)C(C)C)cc1 (racemic) [compound 547, (2S,4R)-1-((2S)-2-(3-(2-((2S,4S)-1-(((1r,3S)-3-((4-(3-(3-amino-6-(2-hydroxyphenyl)pyridazin-4-yl)-3,8-diazabicyclo[3.2.1]octan-8-yl)pyridin-2-yl)oxy)cyclobutyl)methyl)-2-methylpiperidin-4-yl)ethoxy)isoxazol-5-yl)-3-methylbutanoyl)-4-hydroxy-N-((S)-1-(4-(4-methylthiazol-5-yl)phenyl)ethyl)pyrrolidine-2-carboxamide]
DC50: > 30 nM

Cc1ncsc1-c1ccc([C@H](C)NC(=O)[C@@H]2C[C@@H](O)CN2C(=O)[C@H](c2cc(OCC[C@H]3CCN(C[C@H]4C[C@H](Oc5cc(N6C7CCC6CN(c6cc(-c8ccccc8O)nnc6N)C7)ccn5)C4)C[C@H]3C)no2)C(C)C)cc1 (racemic) [compound 565, (2S,4R)-1-((2S)-2-(3-(2-((3S,4R)-1-(((1r,3S)-3-((4-(3-(3-amino-6-(2-hydroxyphenyl)pyridazin-4-yl)-3,8-diazabicyclo[3.2.1]octan-8-yl)pyridin-2-yl)oxy)cyclobutyl)methyl)-3-methylpiperidin-4-yl)ethoxy)isoxazol-5-yl)-3-methylbutanoyl)-4-hydroxy-N-((S)-1-(4-(4-methylthiazol-5-yl)phenyl)ethyl) pyrrolidine-2-carboxamide]
DC50: > 30 nM

Cc1ncsc1-c1ccc([C@H](C)NC(=O)[C@@H]2C[C@@H](O)CN2C(=O)[C@@H](c2cc(OCC[C@H]3CCN(C[C@H]4C[C@H](Oc5cc(N6C7CCC6CN(c6cc(-c8ccccc8O)nnc6N)C7)ccn5)C4)C[C@H]3C)no2)C(C)C)cc1 (racemic) [compound 566, (2S,4R)-1-((2R)-2-(3-(2-((3S,4R)-1-(((1r,3S)-3-((4-(3-(3-amino-6-(2-hydroxyphenyl)pyridazin-4-yl)-3,8-diazabicyclo[3.2.1]octan-8-yl)pyridin-2-yl)oxy)cyclobutyl)methyl)-3-methylpiperidin-4-yl)ethoxy)isoxazol-5-yl)-3-methylbutanoyl)-4-hydroxy-N-((S)-1-(4-(4-methylthiazol-5-yl)phenyl)ethyl) pyrrolidine-2-carboxamide]
Dmax: > 75%
DC50: < 2.5 nM

Cc1ncsc1-c1ccc([C@H](C)NC(=O)[C@@H]2C[C@@H](O)CN2C(=O)[C@@H](c2cc(OCCN3CC[C@@H](OCCc4cc(N5C6CCC5CN(c5cc(-c7ccccc7O)nnc5N)C6)ccn4)C[C@@H]3C)no2)C(C)C)cc1 (racemic) [compound 567, (2S,4R)-1-((2R)-2-(3-(2-((2S,4R)-4-(2-(4-(3-(3-amino-6-(2-hydroxyphenyl)pyridazin-4-yl)-3,8-diazabicyclo[3.2.1]octan-8-yl)pyridin-2-yl)ethoxy)-2-methylpiperidin-1-yl)ethoxy)isoxazol-5-yl)-3-methylbutanoyl)-4-hydroxy-N-((S)-1-(4-(4-methylthiazol-5-yl)phenyl)ethyl) pyrrolidine-2-carboxamide]
Dmax: > 75%
DC50: 2.5 to 10 nM

Cc1ncsc1-c1ccc([C@H](C)NC(=O)[C@@H]2C[C@@H](O)CN2C(=O)[C@@H](c2cc(OCCN3CC[C@H](OCCc4cc(N5C6CCC5CN(c5cc(-c7ccccc7O)nnc5N)C6)ccn4)C[C@@H]3C)no2)C(C)C)cc1 (racemic) [compound 568, (2S,4R)-1-((2R)-2-(3-(2-((2S,4S)-4-(2-(4-(3-(3-amino-6-(2-hydroxyphenyl)pyridazin-4-yl)-3,8-diazabicyclo[3.2.1]octan-8-yl)pyridin-2-yl)ethoxy)-2-methylpiperidin-1-yl)ethoxy)isoxazol-5-yl)-3-methylbutanoyl)-4-hydroxy-N-((S)-1-(4-(4-methylthiazol-5-yl)phenyl)ethyl)pyrrolidine-2-carboxamide]
Dmax: > 75%
DC50: < 2.5 nM

Cc1ncsc1-c1ccc([C@H](C)NC(=O)[C@@H]2C[C@@H](O)CN2C(=O)[C@@H](c2cc(OCC[C@H]3CCN(C[C@H]4C[C@H](Oc5cc(N6C7CCC6CN(c6cc(-c8ccccc8O)nnc6N)C7)ccn5)C4)C[C@@H]3C)no2)C(C)C)cc1 (racemic) [compound 577, (2S,4R)-1-((2R)-2-(3-(2-((3R,4R)-1-(((1r,3R)-3-((4-(3-(3-amino-6-(2-hydroxyphenyl)pyridazin-4-yl)-3,8-diazabicyclo[3.2.1]octan-8-yl)pyridin-2-yl)oxy)cyclobutyl)methyl)-3-methylpiperidin-4-yl)ethoxy)isoxazol-5-yl)-3-methylbutanoyl)-4-hydroxy-N-((S)-1-(4-(4-methylthiazol-5-yl)phenyl)ethyl)pyrrolidine-2-carboxamide]
Dmax: > 75%
DC50: < 2.5 nM

Cc1ncsc1-c1ccc([C@H](C)NC(=O)[C@@H]2C[C@@H](O)CN2C(=O)[C@H](c2cc(OCC[C@H]3CCN(C[C@H]4C[C@H](Oc5cc(N6C7CCC6CN(c6cc(-c8ccccc8O)nnc6N)C7)ccn5)C4)C[C@@H]3C)no2)C(C)C)cc1 (racemic) [compound 578, (2S,4R)-1-((2S)-2-(3-(2-((3R,4R)-1-(((1r,3R)-3-((4-(3-(3-amino-6-(2-hydroxyphenyl)pyridazin-4-yl)-3,8-diazabicyclo[3.2.1]octan-8-yl)pyridin-2-yl)oxy)cyclobutyl)methyl)-3-methylpiperidin-4-yl)ethoxy)isoxazol-5-yl)-3-methylbutanoyl)-4-hydroxy-N-((S)-1-(4-(4-methylthiazol-5-yl)phenyl)ethyl)pyrrolidine-2-carboxamide]
Dmax: > 75%
DC50: < 2.5 nM

Cc1ncsc1-c1ccc([C@H](C)NC(=O)[C@@H]2C[C@@H](O)CN2C(=O)[C@H](c2cc(OCC[C@@H]3CCN(C[C@H]4C[C@H](Oc5cc(N6C7CCC6CN(c6cc(-c8ccccc8O)nnc6N)C7)ccn5)C4)[C@H](C)C3)no2)C(C)C)cc1 (racemic) [compound 579, (2S,4R)-1-((2S)-2-(3-(2-((2R,4R)-1-(((1r,3R)-3-((4-(3-(3-amino-6-(2-hydroxyphenyl)pyridazin-4-yl)-3,8-diazabicyclo[3.2.1]octan-8-yl)pyridin-2-yl)oxy)cyclobutyl)methyl)-2-methylpiperidin-4-yl)ethoxy)isoxazol-5-yl)-3-methylbutanoyl)-4-hydroxy-N-((S)-1-(4-(4-methylthiazol-5-yl)phenyl)ethyl)pyrrolidine-2-carboxamide]
Dmax: > 75%
DC50: < 2.5 nM

Cc1ncsc1-c1ccc([C@H](C)NC(=O)[C@@H]2C[C@@H](O)CN2C(=O)[C@@H](c2cc(OCC[C@@H]3CCN(C[C@H]4C[C@H](Oc5cc(N6C7CCC6CN(c6cc(-c8ccccc8O)nnc6N)C7)ccn5)C4)[C@H](C)C3)no2)C(C)C)cc1 (racemic) [compound 580, (2S,4R)-1-((2R)-2-(3-(2-((2R,4R)-1-(((1r,3R)-3-((4-(3-(3-amino-6-(2-hydroxyphenyl)pyridazin-4-yl)-3,8-diazabicyclo[3.2.1]octan-8-yl)pyridin-2-yl)oxy)cyclobutyl)methyl)-2-methylpiperidin-4-yl)ethoxy)isoxazol-5-yl)-3-methylbutanoyl)-4-hydroxy-N-((S)-1-(4-(4-methylthiazol-5-yl)phenyl)ethyl)pyrrolidine-2-carboxamide]
Dmax: > 75%
DC50: < 2.5 nM

Cc1ncsc1-c1ccc([C@H](C)NC(=O)[C@@H]2C[C@@H](O)CN2C(=O)[C@H](c2cc(OCC[C@@H]3CCN(C[C@H]4C[C@H](Oc5cc(N6C7CCC6CN(c6cc(-c8ccccc8O)nnc6N)C7)ccn5)C4)[C@@H](C)C3)no2)C(C)C)cc1 (racemic) [compound 581, (2S,4R)-1-((2S)-2-(3-(2-((2S,4R)-1-(((1r,3S)-3-((4-(3-(3-amino-6-(2-hydroxyphenyl)pyridazin-4-yl)-3,8-diazabicyclo[3.2.1]octan-8-yl)pyridin-2-yl)oxy)cyclobutyl)methyl)-2-methylpiperidin-4-yl)ethoxy)isoxazol-5-yl)-3-methylbutanoyl)-4-hydroxy-N-((S)-1-(4-(4-methylthiazol-5-yl)phenyl)ethyl)pyrrolidine-2-carboxamide]
Dmax: > 75%
DC50: < 2.5 nM
